Measured values published in patent US20240138411A1, “METHOD OF […] OF SUGARCANE” (CORTEVA AGRISCIENCE LLC, priority 2021, published 2024).
Entries after “also recorded” stand apart in the source; their conditions may differ.

Tested on: sugarcane
Assay: Sugarcane flowering inhibition field trials, floral induction rated on UFSCar scale
Format: in vivo
Description: In order to explore the activity of florpyrauxifen as flowering inhibitor in sugarcane, field studies were carried out. Florpyrauxifen-benzyl was tested at rates from 2 to 20 grams active ingredient per hectare (g ai/ha) and compared to Ethrel® 720 (Bayer), the standard treatment. The flowering inhibition effect was assessed by checking the floral induction in sugarcane through the percentage scale recommended by UFSCar (Federal University of Sao Carlos, Sao Paulo, Brazil).
Four trials were carried out in sugarcane where florpyrauxifen-benzyl (Rinskor®), applied at a rate of 2 to 20 g ai/ha, was compared to ethephon (Ethrel® 720) applied at a rate of 475 g ai/ha. Control plots of untreated sugarcane were also evaluated. Rinskor® and Ethrel® 720 were diluted in water and a single application for each study (backpack sprayer) was performed delivering 50 L of spray solution per ha at the reproductive stage of sugarcane and at a maximum 150 days before harvest. The activity of florpyrauxifen-benzyl as a flowering inhibitor was measured via assessments (Scale of flowering inhibition—see chart 1) performed at 0, 14, 30, 45, 60, 75, 90, 120, 150 days after application, or up to harvest time. The assessments were measured in sugarcane stems, rating the flowering induction according to the UFSCar scale shown below. Significance of treatment effect was evaluated with F-approximate test (α=0.1) and least square means from different treatments were compared with Tukey's test.

## COc1c(Cl)ccc(-c2nc(C(=O)OCc3ccccc3)c(Cl)c(N)c2F)c1F [Rinskor, florpyrauxifen-benzyl]
Table 2, 120 DAA, 5 g ai/ha
  Frequency 1/1 (0%): 0.0%
  Frequency 2/1 (15%): 0.0%
  Frequency 3/1 (30%): 0.0%
  Frequency 4/1 (50%): 0.0%
  Frequency 4/2 (80%): 7.5%
  Frequency 4/3 (90%): 20.0%
  Frequency 4/4 (100%): 72.5%
Table 2, 120 DAA, 7 g ai/ha
  % Referring to Scale: 97.0%
  Frequency 1/1 (0%): 0.0%
  Frequency 2/1 (15%): 0.0%
  Frequency 3/1 (30%): 0.0%
  Frequency 4/1 (50%): 0.0%
  Frequency 4/2 (80%): 5.0%
  Frequency 4/3 (90%): 20.0%
  Frequency 4/4 (100%): 75.0%
Table 2, 120 DAA, 10 g ai/ha
  % Referring to Scale: 96.8%
  Frequency 1/1 (0%): 0.0%
  Frequency 2/1 (15%): 0.0%
  Frequency 3/1 (30%): 0.0%
  Frequency 4/1 (50%): 0.0%
  Frequency 4/2 (80%): 10.0%
  Frequency 4/3 (90%): 12.5%
  Frequency 4/4 (100%): 77.5%
Table 2, 120 DAA, 15 g ai/ha
  % Referring to Scale: 98.5%
  Frequency 1/1 (0%): 0.0%
  Frequency 2/1 (15%): 0.0%
  Frequency 3/1 (30%): 0.0%
  Frequency 4/1 (50%): 0.0%
  Frequency 4/2 (80%): 0.0%
  Frequency 4/3 (90%): 15.0%
  Frequency 4/4 (100%): 85.0%
Table 2, 120 DAA, 20 g ai/ha
  % Referring to Scale: 97.5%
  Frequency 1/1 (0%): 0.0%
  Frequency 2/1 (15%): 0.0%
  Frequency 3/1 (30%): 0.0%
  Frequency 4/1 (50%): 0.0%
  Frequency 4/2 (80%): 7.5%
  Frequency 4/3 (90%): 10.0%
  Frequency 4/4 (100%): 82.5%
Table 3, 90 DAA, 2 g ai/ha
  % Referring to Scale: 0.0%
  Frequency 1/1 (0%): 100.0%
  Frequency 2/1 (15%): 0.0%
  Frequency 3/1 (30%): 0.0%
  Frequency 4/1 (50%): 0.0%
  Frequency 4/2 (80%): 0.0%
  Frequency 4/3 (90%): 0.0%
  Frequency 4/4 (100%): 0.0%
Table 3, 90 DAA, 5 g ai/ha
  % Referring to Scale: 0.0%
  Frequency 1/1 (0%): 100.0%
  Frequency 2/1 (15%): 0.0%
  Frequency 3/1 (30%): 0.0%
  Frequency 4/1 (50%): 0.0%
  Frequency 4/2 (80%): 0.0%
  Frequency 4/3 (90%): 0.0%
  Frequency 4/4 (100%): 0.0%
Table 3, 90 DAA, 7 g ai/ha
  % Referring to Scale: 0.0%
  Frequency 1/1 (0%): 100.0%
  Frequency 2/1 (15%): 0.0%
  Frequency 3/1 (30%): 0.0%
  Frequency 4/1 (50%): 0.0%
  Frequency 4/2 (80%): 0.0%
  Frequency 4/3 (90%): 0.0%
  Frequency 4/4 (100%): 0.0%
Table 3, 90 DAA, 10 g ai/ha
  % Referring to Scale: 0.4%
  Frequency 1/1 (0%): 97.5%
  Frequency 2/1 (15%): 2.5%
  Frequency 3/1 (30%): 0.0%
  Frequency 4/1 (50%): 0.0%
  Frequency 4/2 (80%): 0.0%
  Frequency 4/3 (90%): 0.0%
  Frequency 4/4 (100%): 0.0%
Table 3, 90 DAA, 15 g ai/ha
  % Referring to Scale: 0.0%
  Frequency 1/1 (0%): 100.0%
  Frequency 2/1 (15%): 0.0%
  Frequency 3/1 (30%): 0.0%
  Frequency 4/1 (50%): 0.0%
  Frequency 4/2 (80%): 0.0%
  Frequency 4/3 (90%): 0.0%
  Frequency 4/4 (100%): 0.0%
Table 3, 90 DAA, 20 g ai/ha
  % Referring to Scale: 0.0%
  Frequency 1/1 (0%): 100.0%
  Frequency 2/1 (15%): 0.0%
  Frequency 3/1 (30%): 0.0%
  Frequency 4/1 (50%): 0.0%
  Frequency 4/2 (80%): 0.0%
  Frequency 4/3 (90%): 0.0%
  Frequency 4/4 (100%): 0.0%
Table 3, 120 DAA, 2 g ai/ha
  % Referring to Scale: 5.6%
  Frequency 1/1 (0%): 62.5%
  Frequency 2/1 (15%): 37.5%
  Frequency 3/1 (30%): 0.0%
  Frequency 4/1 (50%): 0.0%
  Frequency 4/2 (80%): 0.0%
  Frequency 4/3 (90%): 0.0%
  Frequency 4/4 (100%): 0.0%
Table 3, 120 DAA, 5 g ai/ha
  % Referring to Scale: 6.9%
  Frequency 1/1 (0%): 62.5%
  Frequency 2/1 (15%): 32.5%
  Frequency 3/1 (30%): 2.5%
  Frequency 4/1 (50%): 2.5%
  Frequency 4/2 (80%): 0.0%
  Frequency 4/3 (90%): 0.0%
  Frequency 4/4 (100%): 0.0%
Table 3, 120 DAA, 7 g ai/ha
  % Referring to Scale: 3.0%
  Frequency 1/1 (0%): 80.0%
  Frequency 2/1 (15%): 20.0%
  Frequency 3/1 (30%): 0.0%
  Frequency 4/1 (50%): 0.0%
  Frequency 4/2 (80%): 0.0%
  Frequency 4/3 (90%): 0.0%
  Frequency 4/4 (100%): 0.0%
Table 3, 120 DAA, 10 g ai/ha
  % Referring to Scale: 4.1%
  Frequency 1/1 (0%): 72.5%
  Frequency 2/1 (15%): 27.5%
  Frequency 3/1 (30%): 0.0%
  Frequency 4/1 (50%): 0.0%
  Frequency 4/2 (80%): 0.0%
  Frequency 4/3 (90%): 0.0%
  Frequency 4/4 (100%): 0.0%
Table 3, 120 DAA, 15 g ai/ha
  % Referring to Scale: 2.6%
  Frequency 1/1 (0%): 85.0%
  Frequency 2/1 (15%): 12.5%
  Frequency 3/1 (30%): 2.5%
  Frequency 4/1 (50%): 0.0%
  Frequency 4/2 (80%): 0.0%
  Frequency 4/3 (90%): 0.0%
  Frequency 4/4 (100%): 0.0%
Table 3, 120 DAA, 20 g ai/ha
  % Referring to Scale: 3.0%
  Frequency 1/1 (0%): 80.0%
  Frequency 2/1 (15%): 20.0%
  Frequency 3/1 (30%): 0.0%
  Frequency 4/1 (50%): 0.0%
  Frequency 4/2 (80%): 0.0%
  Frequency 4/3 (90%): 0.0%
  Frequency 4/4 (100%): 0.0%
Table 3, 150 DAA, 2 g ai/ha
  % Referring to Scale: 3.0%
  Frequency 1/1 (0%): 80.0%
  Frequency 2/1 (15%): 20.0%
  Frequency 3/1 (30%): 0.0%
  Frequency 4/1 (50%): 0.0%
  Frequency 4/2 (80%): 0.0%
  Frequency 4/3 (90%): 0.0%
  Frequency 4/4 (100%): 0.0%
Table 3, 150 DAA, 5 g ai/ha
  % Referring to Scale: 1.9%
  Frequency 1/1 (0%): 87.5%
  Frequency 2/1 (15%): 12.5%
  Frequency 3/1 (30%): 0.0%
  Frequency 4/1 (50%): 0.0%
  Frequency 4/2 (80%): 0.0%
  Frequency 4/3 (90%): 0.0%
  Frequency 4/4 (100%): 0.0%
Table 3, 150 DAA, 7 g ai/ha
  % Referring to Scale: 3.0%
  Frequency 1/1 (0%): 80.0%
  Frequency 2/1 (15%): 20.0%
  Frequency 3/1 (30%): 0.0%
  Frequency 4/1 (50%): 0.0%
  Frequency 4/2 (80%): 0.0%
  Frequency 4/3 (90%): 0.0%
  Frequency 4/4 (100%): 0.0%
Table 3, 150 DAA, 10 g ai/ha
  % Referring to Scale: 0.8%
  Frequency 1/1 (0%): 95.0%
  Frequency 2/1 (15%): 5.0%
  Frequency 3/1 (30%): 0.0%
  Frequency 4/1 (50%): 0.0%
  Frequency 4/2 (80%): 0.0%
  Frequency 4/3 (90%): 0.0%
  Frequency 4/4 (100%): 0.0%
Table 3, 150 DAA, 15 g ai/ha
  % Referring to Scale: 1.9%
  Frequency 1/1 (0%): 87.5%
  Frequency 2/1 (15%): 12.5%
  Frequency 3/1 (30%): 0.0%
  Frequency 4/1 (50%): 0.0%
  Frequency 4/2 (80%): 0.0%
  Frequency 4/3 (90%): 0.0%
  Frequency 4/4 (100%): 0.0%
Table 3, 150 DAA, 20 g ai/ha
  % Referring to Scale: 0.0%
  Frequency 1/1 (0%): 100.0%
  Frequency 2/1 (15%): 0.0%
  Frequency 3/1 (30%): 0.0%
  Frequency 4/1 (50%): 0.0%
  Frequency 4/2 (80%): 0.0%
  Frequency 4/3 (90%): 0.0%
  Frequency 4/4 (100%): 0.0%
Table 4, 90 DAA, 2 g ai/ha
  % Referring to Scale: 5.6%
  Frequency 1/1 (0%): 65.0%
  Frequency 2/1 (15%): 35.0%
  Frequency 3/1 (30%): 0.0%
  Frequency 4/1 (50%): 0.0%
  Frequency 4/2 (80%): 0.0%
  Frequency 4/3 (90%): 0.0%
  Frequency 4/4 (100%): 0.0%
Table 4, 90 DAA, 4 g ai/ha
  % Referring to Scale: 1.1%
  Frequency 1/1 (0%): 87.5%
  Frequency 2/1 (15%): 12.5%
  Frequency 3/1 (30%): 0.0%
  Frequency 4/1 (50%): 0.0%
  Frequency 4/2 (80%): 0.0%
  Frequency 4/3 (90%): 0.0%
  Frequency 4/4 (100%): 0.0%
Table 4, 90 DAA, 10 g ai/ha
  % Referring to Scale: 6.0%
  Frequency 1/1 (0%): 60.0%
  Frequency 2/1 (15%): 40.0%
  Frequency 3/1 (30%): 0.0%
  Frequency 4/1 (50%): 0.0%
  Frequency 4/2 (80%): 0.0%
  Frequency 4/3 (90%): 0.0%
  Frequency 4/4 (100%): 0.0%
Table 4, 90 DAA, 15 g ai/ha
  % Referring to Scale: 2.6%
  Frequency 1/1 (0%): 82.5%
  Frequency 2/1 (15%): 17.5%
  Frequency 3/1 (30%): 0.0%
  Frequency 4/1 (50%): 0.0%
  Frequency 4/2 (80%): 0.0%
  Frequency 4/3 (90%): 0.0%
  Frequency 4/4 (100%): 0.0%
Table 4, 90 DAA, 20 g ai/ha
  % Referring to Scale: 3.0%
  Frequency 1/1 (0%): 80.0%
  Frequency 2/1 (15%): 20.0%
  Frequency 3/1 (30%): 0.0%
  Frequency 4/1 (50%): 0.0%
  Frequency 4/2 (80%): 0.0%
  Frequency 4/3 (90%): 0.0%
  Frequency 4/4 (100%): 0.0%
Tables 1-4, 60 to 150 days after application
  flowering inhibition performance versus the standard (Ethrel 720): as well as or better than the standard treatment; also recorded: equivalent to or better than the standard
Field studies, rates from 2 to 20 g ai/ha
  sugarcane flowering inhibition: excellent sugarcane flowering inhibitor
